# Measurements from article PMC6958329, “New ^55Co-labeled Albumin-Binding Folate Derivatives as Potential PET Agents for Folate Receptor Imaging” (Pharmaceuticals, 2019).
# “And” between values parts separate entries of the source, which are not always exact repeats. Equal entries are not always repeated.
# Experiments:
# [1] = In vitro stability in PBS (radio-TLC); assay type: physicochemical; settings: 37 °C, normalized to 0 h, n = 3
# Protocol: Stability of the ^55Co-labeled folates was monitored over a period of 24 h in phosphate buffered saline (PBS) and mouse serum, to monitor the stability of a dose prior to injection (for potential shipment to a PET center) and match the longest biodistribution time point, respectively. The percentage of the intact complex was monitored at 1 h, 4 h, and 24 h via radio-TLC (PBS) or HPLC (mouse serum). […] In PBS, both radioconjugates retained 93% or greater stability at 24 h. […] As a control, one group of replicate serum tubes contained only [^55Co]CoCl2. […] Therefore, the peak corresponding to free [^55Co]CoCl2 (tR = 2.2 min) was used to determine the overall serum stability of the ^55Co-labeled chelates, which was approximately 95% for each compound at 24 h.
# The ^55Co-labeled folate derivatives were diluted 10-fold in 10 mM PBS (pH = 7.4) or whole mouse serum (EMD Millipore, Burlington, MA) in 1.5 mL centrifuge tubes to final volumes of 100 μL. The tubes were incubated at 37 °C with vortexing at 900 rpm using an Eppendorf ThermoMixer C (Eppendorf, Hamburg, Germany) equipped with a 1.5 mL heating block. In the case of PBS stability, three replicate tubes were prepared with average final activity concentrations of 37 kBq (1 μCi) [^55Co]Co-cm10/μL or 37 kBq (1 μCi) [^55Co]Co-rf42/μL, and the final concentrations of precursor were 0.07 mM of cm10 or rf42. The percent of the intact complex was determined by analyzing 1 μL aliquots of each solution by radio-TLC at 1 h, 4 h and 24 h. For mouse serum stability, three replicate tubes were prepared for each time point for each complex. The final average activity concentrations were 11.1 kBq (0.3 μCi) [^55Co]Co-cm10/μL and 7.4 kBq (0.2 μCi) [^55Co]Co-rf42/μL and 0.02 mM final folate concentration. A control sample was prepared for each time point that contained an average of 10.4 kBq/μL of [^55Co]CoCl2. At each time point, 300 μL of ACN was added to each tube to precipitate serum proteins. The tubes were centrifuged at 4500 rpm for 5 min using a benchtop microcentrifuge (Eppendorf, Hamburg, Germany) and the supernatants collected. The pellets were washed once more, and the supernatants were collected and combined with the first ACN wash. The activities in the pellets and supernatants were determined using a 2480 Wizard2 Automatic Gamma Counter (Perkin Elmer, Waltham, MA, USA) to determine the amount of activity associated with the protein pellet. To determine the percentage of intact complex, the supernatant was diluted 2-fold with water, and 100 μL of this mixture was injected into the HPLC.
# [2] = design: method as in PMID 18246556, doi:10.1016/S0277-5387(99)00369-1, doi:10.1351/pac200577081445; settings: remaining carboxylic acid O of DOTA in the Co(II) complex; cited from earlier work
# FR-expressing KB cells = test: Cell binding and internalization in KB cells; assay type: cell-based, human; settings: for uptake blocked by co-incubation with folic acid: 0.7 mM folic acid
# Protocol: Cellular assays were performed using the human cervical cancer KB cell line, which was cultured in folate-deficient cell media prior to use. The ^55Co-labeled folates were incubated with FR-expressing KB cells to determine total uptake (i.e., all cell-associated activity, both surface-bound and internalized) and the internalized fraction. To determine whether uptake was receptor-mediated, some cells were co-incubated with folic acid, which binds to FRs with high affinity to act as a blocking agent. […] The uptake profiles for both of the tested radiofolates were similar to each other and more similar to the previously reported [^68Ga]Ga-rf42 complex, in contrast to [^64Cu]Cu-rf42 [14]. In the case of [^55Co]Co-cm10, 26% of the total uptake was internalized with 95% of the uptake blocked by co-incubation of the cells with 0.7 mM of folic acid (Figure 3).
# The human cervical cancer cell line KB (CCL-17) was purchased from ATCC (Manassas, VA, USA) and cells were cultured in Gibco folate-deficient RPMI 1640 growth medium (FFRPMI, Thermo Scientific, Waltham, MA, USA) supplemented with 10% fetal bovine serum, and Gibco 1% Antibiotic-Antimycotic. Cells were cultured following standard procedures and were incubated at 37 °C in a 5% CO2 environment and harvested using Gibco 0.25% trypsin-EDTA.
# Cell internalization was performed similarly to a previously published procedure. KB cells were harvested, washed with supplemented FFRPMI, and resuspended in supplemented FFRPMI at a final concentration of 1 × 10^5 cells/mL for seeding. In […], 1 mL of the cell mixture was added to each well, and the plates were incubated overnight to allow for adhesion and growth. The following morning, the radiofolates were prepared at molar activities of 331.7 MBq/μmol (9.0 mCi/µmol) [^55Co]Co-cm10 and 299.5 MBq/μmol (8.1 mCi/μmol) in 50 μL final volume and then diluted in supplement free FFRPMI (either with or without 1 mM folic acid) to a final volume of 1 mL/well. The plates were collected, the supernatants discarded, and 1 mL of the dilute radiofolates in media was added to each well (n = 4 for each condition). […] The stripping buffer and lysed cell fractions were collected separately and counted using an automatic gamma counter.
# The lysed cell fractions in NaOH were saved, and the total protein concentration for each sample was determined using a Pierce Micro BCA Protein Assay kit (Thermo Scientific, Waltham, MA, USA). The samples were vortexed vigorously prior to assaying, and were analyzed without further dilution. The results were used to normalize the measured radioactivity to the average protein content in each well.
Structure (SMILES),"percent intact complex, PBS ([1]; 1 h)","percent intact complex, PBS ([1]; 4 h)","percent intact complex, PBS ([1]; 24 h)",pKa [2],fraction of total uptake internalized (FR-expressing KB cells),uptake blocked by co-incubation with folic acid (FR-expressing KB cells)
Nc1nc2ncc(CNc3ccc(C(=O)N[C@@H](CCC(=O)NC(CCCCNC(=O)CN4CCN(CC(=O)O)CCN(CC(=O)O)CCN(CC(=O)O)CC4)C(=O)NC(CCCCNC(=O)CCCc4ccc(I)cc4)C(=O)O)C(=O)O)cc3)nc2c(=O)[nH]1.[55Co] (some centres unmarked) [[^55Co]Co-cm10],97 ± 2%,95 ± 1%,93% and 93.4 ± 0.3%,4.04,26%,95%
Nc1nc2ncc(CNc3ccc(C(=O)N[C@@H](CCC(=O)NC(CCCCNC(=O)CCC(C(=O)O)N4CCN(CC(=O)O)CCN(CC(=O)O)CC4)C(=O)NC(CCCCNC(=O)CCCc4ccc(I)cc4)C(=O)O)C(=O)O)cc3)nc2c(=O)[nH]1.[55Co] (some centres unmarked) [[^55Co]Co-rf42],98 ± 2%,95.6 ± 0.9%,93% and 93 ± 3%,–,24%,97%
